Assay results taken from publication PMC8591201, “Anti-Tumor Activity of AZD4547 Against NTRK1 Fusion Positive Cancer Cells Through Inhibition of NTRKs” (Frontiers in Oncology, 2021).

Assays:
Test in all cases: cells
Design in all cases: Anti-proliferation, 10-point dose response, CellTiter-Glo luminescence (MTT stated for KM12(Luc)), GI50 fitted in Prism
U937 = conditions: Homo sapiens, U-937, 72 h, read-out: GI50 (µM) a
Method: (§1) To obtain the GI50 value of a substance, cell viability was measured using MTT (G4000, Promega, USA) for KM12(Luc) cell and Cell titer glo (G7572, Promega, USA) for other cell lines. For adherent cells, cells were seeded at 5,000 cells/well in a 96-well plate and treated with a substance one day after cell seeding. For suspension cells, 10,000 cells/well were seeded and the substance was treated after 4 h stabilization of cells. The substance was treated at 10 points of 1:3 serial dilution (0–100 µmol/L) for 72 h. For MTT assay, 15 µL dye solution was added to each well and incubated 4 h at 37°C. 100 µL of solubilization solution was added and followed 1 hr incubation. Absorbance at 570 nm of each well was recorded using EnVision microplate reader (Perkin Elmer). For Cell titer glo assay, Cell titer glo reagent was treated in each well and measured the luminescence by EnVision microplate reader (Perkin Elmer). Viable cells in each well were normalized by using 0.5% DMSO-treated wells (100%). The inhibitor dose−response curve was fitted and GI50 values were calculated using Prism 7.0 software (GraphPad). All assays were performed in duplicate and the standard deviation (SD) was determined from two independent experiments. KM12(Luc) was purchased from the JCRB cell bank. KM12 (Luc) was used within 6 months after purchase and the DNA profiles were confirmed using a short tandem repeat (STR) analysis by the Korean Cell Line Bank. KM12(Luc) cells were maintained in DMEM supplemented with 10% FBS and antibiotics. Parental Ba/F3 cells were purchased from DSMZ and were grown in RPMI1640 supplemented with 10% FBS and antibiotics in the presence of IL3, Transformed Ba/F3 cell lines were grown in the same media without IL3. Cells used in this study were negative for mycoplasma contamination. AN3-CA, HEC1A, U138, 8505C, MKN28, MKN45, A172, A375, Capan-1 HeLa, HEP3B, MCF-7 and MIA-paca-2 cells were maintained in DMEM (Welgene, Korea) supplemented with 10% FBS and antibiotics (Welgene, Korea). Otherwise, all cells were maintained in RPMI (Welgene, Korea) supplemented with 10% FBS and antibiotics (Welgene, Korea). To identify AZD4547 sensitive cell lines other than FGFR-mutant driven cancer cells, GI50 values were determined for AZD4547 against 64 different cancer cell lines, including AN3-CA used as a positive control ( Figure 1A and Table S1 ). […] Also, inhibitory activity of AZD4547 against DDR1 or FLT3 allows suppression of proliferation of U-2-OS and MV4-11 ([43]). Therefore, our attention focused on the inhibitory activity of AZD4547 against KM12(Luc) cell lines which have the TPM3-NTRK1 fusion gene. To exclude the possibility that the anti-proliferation activity of AZD4547 against KM12(Luc) is a common characteristic of FGFR inhibitors, we determined if BGJ398, a representative FGFR inhibitor, is also capable of suppressing proliferation of KM12(Luc) cells ( Figure 1B ).

T98G = conditions: Homo sapiens, T98G, 72 h, read-out: GI50 (µM) a
Method: as §1

KG-1 = conditions: Homo sapiens, KG-1, 72 h, read-out: GI50 (µM) a
Method: as §1

MCF7 = conditions: Homo sapiens, MCF7, 72 h, read-out: GI50 (µM) a
Method: as §1

MIA-PaCa-2 = conditions: Homo sapiens, MIA PaCa-2, 72 h, read-out: GI50 (µM) a
Method: as §1

MKN45 = conditions: Homo sapiens, MKN-45, 72 h, read-out: GI50 (µM) a
Method: as §1

J82 = conditions: Homo sapiens, J82, 72 h, read-out: GI50 (µM) a
Method: as §1

LNCaP = conditions: Homo sapiens, LNCaP, 72 h, read-out: GI50 (µM) a
Method: as §1

Molm-14 = conditions: Homo sapiens, MOLM-14, 72 h, read-out: GI50 (µM) a
Method: as §1

HEP3B = conditions: Homo sapiens, Hep3B, 72 h, read-out: GI50 (µM) a
Method: as §1

NCI-H1299 = conditions: Homo sapiens, NCI-H1299, 72 h, read-out: GI50 (µM) a
Method: as §1

HCT-116 = conditions: Homo sapiens, HCT-116, 72 h, read-out: GI50 (µM) a
Method: as §1

Compound COc1cc(CCc2cc(NC(=O)c3ccc(N4C[C@@H](C)N[C@@H](C)C4)cc3)n[nH]2)cc(OC)c1 [AZD4547] has a GI50 (U937) of 12.2 µM, a GI50 (T98G) of 5.21 µM and a GI50 (KG-1) of 6.27 µM. For the same compound, the GI50 (MCF7) was 7.84 µM, the GI50 (MIA-PaCa-2) was 12.2 µM and the GI50 (MKN45) was 12 µM. For the same compound, the GI50 (J82) was 9.54 µM, the GI50 (LNCaP) was 22.7 µM and the GI50 (Molm-14) was 1.25 µM. For the same compound, the GI50 (HEP3B) was 19.7 µM, the GI50 (NCI-H1299) was 60.6 µM and the GI50 (HCT-116) was 7.13 µM.
